# Results from patent US12054765B2, “Phytopathogenic fungus detecting apparatus, and detecting method and method for selecting concentration of agricultural chemical using same” (Panasonic Intellectual Property Management Co., Ltd., priority 2018, dated 2024).
# Test system: Botrytis cinerea
# Experiment: Hyphal growth of Botrytis cinerea in agricultural-chemical three-concentration-level layers-stacked culture media
# Format: cell-based
# Details: 25 degrees Celsius, seven days; for hyphae of Botrytis cinerea in the culture medium layer (microscope observation from side surface): potato dextrose agar
# Text: Botrytis cinerea that is one type of phytopathogenic fungus and a pathogenic fungus of tomato gray mold disease was inoculated into a potato dextrose agar culture medium (Difco (registered trademark) Potato Dextrose Agar). Next, the culture medium was left to stand still at a temperature of 25 degrees Celsius for one week. […] Next, the Botrytis cinerea-cultured potato dextrose agar culture medium in which hyphae sufficiently grew was left under irradiation with black light for not less than four days and left in a room-temperature environment for not less than two weeks to promote spore formation. […] Hereinafter, this aqueous solution is referred to as an “aqueous phytopathogenic fungus solution”.
# Agricultural-chemical main-ingredient reagent Captan (manufactured by Tokyo Chemical Industry Co., Ltd. (TCI)) was added to potato dextrose agar culture media, with a charging amount (concentration) changed, to produce three layers of original culture media. Captan was prepared into a dimethyl sulfoxide (DMSO) (manufactured by SIGMA-ALDRICH) solution of Captan at a concentration 100 times a standard use concentration. The solution was charged into and mixed with the potato dextrose agar culture media respectively in amounts of 0 ml, 2 ml, and 10 ml per 1 L of the potato dextrose agar culture media to make three-concentration-level culture media respectively at a Captan concentration of 0 (no blending) and in an amount ⅕ a standard use amount of Captan and the standard use amount. In the present example, the potato dextrose agar culture media containing Captan at three concentration levels were stacked from bottom in an order of the Captan standard amount culture medium, the culture medium in an amount ⅕ the Captan standard amount, and the medium with no Captan blended, and the stacked body was cut out with a glass cylindrical, square, or rectangular shape forming member into a device of the example. […]
smiles,measurement,setting,value
O=C1C2CC=CCC2C(=O)N1SC(Cl)(Cl)Cl (stereo not drawn) [Captan],amount at which an effect against Botrytis cinerea was exerted (effective concentration),layer where hyphal growth stopped,⅕
same,hyphae of Botrytis cinerea in the culture medium layer (microscope observation from side surface),"lower layer 64, Captan blended in the standard amount",No hypha was confirmed
same,hyphae of Botrytis cinerea in the culture medium layer (microscope observation from side surface),"second layer 63, Captan blended in the amount ⅕ the standard use amount",no hypha of Botrytis cinerea was confirmed
